This is an account of results in patent US8183228B2, “Anticoagulant antithrombotic dual inhibitors comprising a biotin label” (MSD OSS B.V. Netherlands, priority 2005, dated 2012).

The IC50 is the concentration that inhibits the measured activity by half. Low readings indicate inhibition by little substance, high ones a need for much substance. As usually defined, the % inhibition is the change of the read-out against control, counted positive when it falls.

In experiment [1] the test system is guinea pig platelet rich plasma. Nature of the experiment: Inhibition of guinea pig platelet aggregation induced by ADP (PRP). Type of experiment: cell-based. Conditions: for IC50: guinea pig PRP. From the text:
1.1 In Vitro Test for Inhibition of Guinea Pig Platelet Aggregation Induced by ADP
Addition of adenosine diphosphate (ADP) to human or guinea pig platelet rich plasma (PRP) in vitro induces platelet aggregation. This aggregation can be assessed by measuring the change in optical density (OD) of the PRP. The following in vitro test was used to evaluate the test compound for interference with the ADP-induced aggregation of guinea pigs.
Platelet rich plasma (PRP): Free-flowing blood is taken from a healthy volunteer or a guinea pig and collected in 0.1 volume sodium citrate.2H2O, 3.8% in distilled H2O (w/v). The final concentration is 0.38% sodium citrate. The citrated blood is centrifuged at 1,600 N/kg (160 g, i.e., 900 rpm in a Hettich Rotanta/AP at room temperature. After 15 minutes centrifugation is discontinued with brake turned off, and the supernatant (=PRP) is collected. A fresh solution of ADP (analytical grade), 50 μM in 0.9% NaCl in MQ water, is used immediately.
The platelets in the supernatant (PRP) are counted using a Sysmex blood cell counter and the supernatant is diluted with PPP (platelet poor plasma) to obtain a PRP containing approximately 400,000±50,000 plt/mL. PRP should stabilize at room temperature for at least 20 min but not longer than 3 h.
150 μL PRP is pipetted into a well of the microplate. 30 μL test compound in a range of concentrations (7 concentrations per compound) or vehicle is added and the microplate is placed in the Labsystems iEMS reader MF at 37° C. The optical density (OD620) is then measured at 620 nm. After shaking for 2 minutes in the reader (1,000 rpm), the OD is measured for the second time. This is to verify the stability of the platelets (absence of spontaneous platelet aggregation). Then, 20 μL of 50 μM ADP solution is added and the OD is kinetically measured every minute for 14 minutes at 620. Between two measurements, the plate is shaking for 40 seconds at 1,000 rpm. Each test compound is investigated in at least 2 experiments using PRP from different volunteers.
(§1) The mean OD at each compound concentration (including vehicle) is calculated at t=0 min and t=10 min. The percentage inhibition at each concentration is calculated using the formula: […]
The IC50 of the test compound is the concentration at which the ADP-induced platelet aggregation is reduced by 50%. For this, the percentage inhibition values are plotted against compound concentration and the IC50 is calculated using Graphpad Prism 3.0 (with variable slope).
As performed in above described protocol for ADP-induced platelet aggregation. […] Before inducing the guinea pig platelet aggregation by adding ADP, compound and avidin (from egg white, Sigma) in different concentrations were pre-incubated for 2 minutes at room temperature (FIGS. 1 and 2).

The subject of experiment [2] is factor Xa. Nature of the experiment: Anti-factor Xa activity in human plasma (amidolytic, S2222). The experiment is classed as biochemical. The note with it: against calibration curve of standard heparin. As to the method: 1.3 In Vitro Test for Determination of the Anti-Factor Xa Activity in Human Plasma
The anti-factor Xa activity of the tested compounds in human plasma were measured amidolytically with S2222 (Chromogenix, Chromogenics Ltd, Molndal, Sweden) using the method described by Teien and Lie. (Teien A N, Lie M. Evaluation of an amidolytic heparin assay method increased sensitivity by adding purified antithrombin III. Thromb. Res. 1977, 10: 399-410). The anti-Xa activity is expressed in U/μmol after comparison of the amidolytic activity with a calibration curve of standard heparin.

For experiment [3], the system named is human platelet rich plasma. In words: Inhibition of human platelet aggregation induced by ADP (PRP). The experiment is classed as cell-based. As for the experimental part: The final concentration is 0.38% sodium citrate.
The optical density (OD620) is then measured at 620 nm. […] This is to verify the stability of the platelets (absence of spontaneous platelet aggregation). […] Between two measurements, the plate is shaking for 40 seconds at 1,000 rpm. Each test compound is investigated in at least 2 experiments using PRP from different volunteers.
as §1

The subject of experiment [4] is collagen induced platelet aggregation. In words: In vivo neutralization: collagen induced platelet aggregation (thrombocytopenia) model. Conditions: guinea pig; for neutralization of the platelet inhibitory activity by avidin: avidin 10 mg/kg just prior to collagen infusion. As for the experimental part: 4. In Vivo Neutralization of the Antithrombotic Activity
An intravascular infusion of a collagen suspension induces platelet aggregation and causes transient thrombocytopenia in rats. This test is used to evaluate the influence of a test compound on the severity of thrombocytopenia induced by collagen in rats.
In the first experiment male guinea pigs were s.c. treated with compound 10 at a dose of 75 nmol/kg or vehicle at 4 hours before collagen infusion. In a second experiment compounds 12 and 17 were s.c. administered at a dose of 100 nmol/kg at the same time-point. Male guinea pigs were anaesthetized by i.m. administration of Ketamine+Sedamun (90+10 mg/kg, respectively). After 15 minutes one of the common carotid arteries was dissected free and cannulated with a PE 50 cannula (Clay Adams). Two blood samples of 0.5 mL were collected in plastic vials containing 25 μL 0.20 M Na2EDTA solution. The cannula was then connected to a syringe containing 0.25 mg/mL collagen suspension (Hormon Chemie, Munich, West Germany, diluted with isotonic buffer of pH 2.8). This suspension was administered via an infusion of 225 μL during 30 seconds. Then the syringe was disconnected and 2 blood samples of 0.5 mL were taken at 85 and 95 seconds after the start of the collagen infusion. Then the animals were killed with euthasate after which the number of platelets per sample were counted with a Sysmex blood cell counter model KX-21. In case avidin was used, 10 mg/kg of avidin was i.v. administered at t=4 h after s.c. administration of compound 10, 12 or 17 after which collagen was infused within 5 minutes.
After counting the number of platelets in the collected blood samples the decreased number of platelets is calculated by dividing the mean platelet number of the blood samples obtained at t=85 and 95 seconds by the mean value of the blood samples obtained at t=0. The test was carried out with n=4.

Where [5] appears, read: 75 nmol/kg s.c., + avidin 10 mg/kg i.v. at t = 4 h.
Setting [6] is: 75 nmol/kg s.c., without avidin.
Setting [7] is: 100 nmol/kg s.c., + avidin 10 mg/kg i.v. at t = 4 h.
Setting [8] is: 100 nmol/kg s.c., without avidin.

Each structure is given as a SMILES string. Counter-ions that a name gives are not always drawn.

Consider `CO[C@H]1O[C@H](COS(=O)(=O)O)[C@@H](O[C@@H]2O[C@@H](C(=O)O)[C@@H](O[C@H]3O[C@H](COS(=O)(=O)O)[C@@H](O[C@@H]4O[C@H](C(=O)O)[C@@H](O[C@H]5O[C@H](COS(=O)(=O)O)[C@@H](OCCOCCOCCOCCNC(=O)[C@H](CCCCNC(=O)CCCC[C@@H]6SC[C@@H]7NC(=O)N[C@@H]76)NC(=O)COCCOCCOCCOCCNC(=O)c6cccc(S(=O)(=O)N[C@@H](Cc7ccc(OCCCCC8CCNCC8)cc7)C(=O)O)c6)[C@H](OC)[C@H]5OC)[C@H](OC)[C@H]4OC)[C@H](OS(=O)(=O)O)[C@H]3OS(=O)(=O)O)[C@H](OC)[C@H]2OC)[C@H](OS(=O)(=O)O)[C@H]1OS(=O)(=O)O` [Compound 10, sodium salt], for which, in experiment [1], the “concentration at which maximal inhibition of the guinea pig platelet aggregation is achieved” value came to 450 nM and the IC50 came out at 225 nM. In addition, the “Anti-Xa U/μmol Human plasma pH 7.4” value in experiment [2] is recorded as 927 U/μmol. Also, the IC50 in experiment [3] is 74 nM. In experiment [4] (75 nmol/kg s.c., 4 h before collagen, without avidin), the “No. of platelets t = 0” value amounted to 386 ± 31. Moreover, in experiment [4] (75 nmol/kg s.c., 4 hours after administration, without avidin, sodium salt), the “% inhibition” value is reported as 76 ± 4%. In experiment [4] (setting [5]), the “% inhibition” value worked out at 2 ± 13%, the “% remaining platelets” value is reported as 40.4 ± 7.8%, the “No. of platelets t = 0” value was 384 ± 20 and the “No. of platelets t = 90 sec” value is 152 ± 26. In experiment [4] (setting [6]), the “% remaining platelets” value was determined as 85.3 ± 2.5% and the “No. of platelets t = 90 sec” value came to 328 ± 18. Besides, the “neutralization of the platelet inhibitory activity by avidin” value in experiment [4] is “immediate and quantitative neutralization”.
For the molecule `CO[C@H]1O[C@H](COS(=O)(=O)O)[C@@H](O[C@@H]2O[C@@H](C(=O)O)[C@@H](O[C@H]3O[C@H](COS(=O)(=O)O)[C@@H](O[C@@H]4O[C@H](C(=O)O)[C@@H](O[C@H]5O[C@H](COS(=O)(=O)O)[C@@H](OCCOCCOCCOCCNC(=O)COCCOCCOCCOCCNC(=O)c6cccc(S(=O)(=O)N[C@@H](Cc7ccc(OCCCCC8CCNCC8)cc7)C(=O)O)c6)[C@H](OC)[C@H]5OC)[C@H](OC)[C@H]4OC)[C@H](OS(=O)(=O)O)[C@H]3OS(=O)(=O)O)[C@H](OC)[C@H]2OC)[C@H](OS(=O)(=O)O)[C@H]1OS(=O)(=O)O` [Compound 12, sodium salt, reference compound], in experiment [1], the “concentration at which maximal inhibition of the guinea pig platelet aggregation is achieved” value came to 225 nM and the IC50 was found to be 127 nM. In addition, the “Anti-Xa U/μmol Human plasma pH 7.4” value in experiment [2] is recorded as 1392 U/μmol. The IC50 in experiment [3] was 92 nM. For the same molecule, in experiment [4] (100 nmol/kg s.c., 4 hours after administration, without avidin, sodium salt), the “% inhibition” value turned out to be 70 ± 4%. In experiment [4] (setting [7]), the “% inhibition” value is recorded as 74 ± 3%, the “% remaining platelets” value came to 86.5 ± 1.7%, the “No. of platelets t = 0” value stood at 379 ± 6 and the “No. of platelets t = 90 sec” value turned out to be 329 ± 11. In experiment [4] (setting [8]), the “% remaining platelets” value is on record as 84.5 ± 2.2%, the “No. of platelets t = 0” value was found to be 426 ± 6 and the “No. of platelets t = 90 sec” value stood at 360 ± 7. Besides, the “neutralization of the platelet inhibitory activity by avidin” value in experiment [4] is “not”.
For the molecule `CO[C@H]1O[C@H](COS(=O)(=O)O)[C@@H](O[C@@H]2O[C@@H](C(=O)O)[C@@H](O[C@H]3O[C@H](COS(=O)(=O)O)[C@@H](O[C@@H]4O[C@H](C(=O)O)[C@@H](O[C@H]5O[C@H](COS(=O)(=O)O)[C@@H](OCCOCCOCCOCCNC(=O)[C@H](CCCCNC(=O)C[C@H](NC(=O)CCCC[C@@H]6SC[C@@H]7NC(=O)N[C@@H]76)C(=O)O)NC(=O)COCCOCCOCCOCCNC(=O)c6cccc(S(=O)(=O)N[C@@H](Cc7ccc(OCCCCC8CCNCC8)cc7)C(=O)O)c6)[C@H](OC)[C@H]5OC)[C@H](OC)[C@H]4OC)[C@H](OS(=O)(=O)O)[C@H]3OS(=O)(=O)O)[C@H](OC)[C@H]2OC)[C@H](OS(=O)(=O)O)[C@H]1OS(=O)(=O)O` [Compound 17, sodium salt], the IC50 in experiment [1] came out at 66 nM. In addition, the “Anti-Xa U/μmol Human plasma pH 7.4” value in experiment [2] is 1411 U/μmol. The same molecule came in with an IC50 in experiment [3] of 49 nM. For the same molecule, in experiment [4] (setting [7]), the “% inhibition” value was −5 ± 15%, the “% remaining platelets” value is on record as 46.5 ± 7.8%, the “No. of platelets t = 0” value is given as 367 ± 16 and the “No. of platelets t = 90 sec” value came to 181 ± 12. Besides, in experiment [4] (setting [8]), the “% remaining platelets” value is listed as 82.5 ± 2.0%, the “No. of platelets t = 0” value is 424 ± 11 and the “No. of platelets t = 90 sec” value came out at 348 ± 7. In addition, the “neutralization of the platelet inhibitory activity by avidin” value in experiment [4] is “immediate and quantitative neutralization”.
